Data: BindingDB's records for PubMed 2885406 (University of California, 1987)
Where “and” joins values, the source holds several entries; their conditions need not be identical. Equal values may be shown once.

Biological target: T1, Alpha-2C adrenergic receptor (Rattus norvegicus, UniProt P22086)
T1 sequence (P22086 whole entry): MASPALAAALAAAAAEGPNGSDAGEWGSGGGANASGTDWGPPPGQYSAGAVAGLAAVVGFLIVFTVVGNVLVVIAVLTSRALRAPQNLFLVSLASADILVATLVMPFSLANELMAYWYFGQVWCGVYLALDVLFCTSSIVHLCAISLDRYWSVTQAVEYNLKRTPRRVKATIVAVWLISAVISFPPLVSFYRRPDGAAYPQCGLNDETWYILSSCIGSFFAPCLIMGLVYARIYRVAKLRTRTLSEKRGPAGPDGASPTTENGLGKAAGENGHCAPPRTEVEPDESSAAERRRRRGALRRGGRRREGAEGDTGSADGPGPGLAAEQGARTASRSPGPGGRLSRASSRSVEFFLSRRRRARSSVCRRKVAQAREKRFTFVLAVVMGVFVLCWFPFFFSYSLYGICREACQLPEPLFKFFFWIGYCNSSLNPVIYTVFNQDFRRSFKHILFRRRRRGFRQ

Row | SMILES | Ki
1 | CCN1CCCC1CNC(=O)c1cc(S(N)(=O)=O)ccc1OC (stereo not given) [N-[(1-ethylpyrrolidin-2-yl)methyl]-2-methoxy-5-sulfamoylbenzamide] | 6120 nM and 682 nM
2 | NCCc1ccc(O)c(O)c1 | > 10000 nM and 9990 nM
3 | CN1Cc2c(N)cccc2[C@H](c2ccccc2)C1 [(+/-)-2-Methyl-4-phenyl-1,2,3,4-tetrahydro-isoquinolin-8-ylamine] | 8500 nM and 4990 nM
4 | COc1ccc(OC)c(C(O)C(C)N)c1 (stereo not given) | > 10000 nM
5 | CC(C)(C)[C@]1(O)CCN2C[C@H]3c4ccccc4CCc4cccc(c43)[C@@H]2C1 | 220 nM and 107 nM
6 | C=CCN1CCc2nc(N)sc2CC1 [B-HT 920] | 152 nM and 62.2 nM
7 | NCCc1c[nH]c2ccc(O)cc12 [[3H]-5-HT] | > 10000 nM
8 | NC(N)=NN=Cc1c(Cl)cccc1Cl [Guanabenz] | 5.8 nM and 36.7 nM
9 | O=C(c1ccc(F)cc1)C1CCN(CCn2c(=O)[nH]c3ccccc3c2=O)CC1 [3-(2-{4-[(4-fluorophenyl)carbonyl]piperidin-1-yl}ethyl)-1,2,3,4-tetrahydroquinazoline-2,4-dione] | 2210 nM and 441 nM
10 | C[C@H](N)Cc1ccccc1 [beta-aminopropylbenzene] | 992 nM and 2410 nM
